The values below come from patent US20230293519A1, “INTEGRIN INHIBITORS AND USES THEREOF IN COMBINATION WITH OTHER AGENTS” (Pliant Therapeutics, Inc., priority 2021, published 2023).

Each structure is given as a SMILES string.

Chain of recombinant human integrin αvβ6 (P06756 31-889): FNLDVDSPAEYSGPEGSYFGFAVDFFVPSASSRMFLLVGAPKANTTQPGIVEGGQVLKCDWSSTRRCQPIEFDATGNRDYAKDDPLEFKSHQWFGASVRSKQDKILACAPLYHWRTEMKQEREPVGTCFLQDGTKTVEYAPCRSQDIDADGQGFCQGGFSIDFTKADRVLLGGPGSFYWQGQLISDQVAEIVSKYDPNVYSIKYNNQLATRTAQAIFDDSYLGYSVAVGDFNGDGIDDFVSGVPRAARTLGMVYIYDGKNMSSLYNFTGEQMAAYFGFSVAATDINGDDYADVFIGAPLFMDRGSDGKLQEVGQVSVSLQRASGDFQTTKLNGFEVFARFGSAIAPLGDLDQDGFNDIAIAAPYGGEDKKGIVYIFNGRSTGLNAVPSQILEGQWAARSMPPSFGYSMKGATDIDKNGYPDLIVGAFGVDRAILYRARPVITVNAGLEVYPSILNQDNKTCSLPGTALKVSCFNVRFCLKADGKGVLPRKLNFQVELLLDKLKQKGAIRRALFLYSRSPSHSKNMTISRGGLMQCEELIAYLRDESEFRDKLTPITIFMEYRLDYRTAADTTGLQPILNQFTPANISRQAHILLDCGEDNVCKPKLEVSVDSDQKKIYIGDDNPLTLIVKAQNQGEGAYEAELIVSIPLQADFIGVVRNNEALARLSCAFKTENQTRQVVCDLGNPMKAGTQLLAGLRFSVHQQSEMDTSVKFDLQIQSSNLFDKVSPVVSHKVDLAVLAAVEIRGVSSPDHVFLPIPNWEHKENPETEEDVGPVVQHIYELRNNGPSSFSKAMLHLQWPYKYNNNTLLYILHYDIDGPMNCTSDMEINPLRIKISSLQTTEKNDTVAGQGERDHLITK
Chain of recombinant human integrin αvβ6 (P06756 890-992 partner): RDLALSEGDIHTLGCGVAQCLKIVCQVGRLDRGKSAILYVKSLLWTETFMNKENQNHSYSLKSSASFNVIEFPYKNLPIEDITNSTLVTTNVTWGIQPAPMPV
Chain of recombinant human integrin αvβ6 (P18564 22-707): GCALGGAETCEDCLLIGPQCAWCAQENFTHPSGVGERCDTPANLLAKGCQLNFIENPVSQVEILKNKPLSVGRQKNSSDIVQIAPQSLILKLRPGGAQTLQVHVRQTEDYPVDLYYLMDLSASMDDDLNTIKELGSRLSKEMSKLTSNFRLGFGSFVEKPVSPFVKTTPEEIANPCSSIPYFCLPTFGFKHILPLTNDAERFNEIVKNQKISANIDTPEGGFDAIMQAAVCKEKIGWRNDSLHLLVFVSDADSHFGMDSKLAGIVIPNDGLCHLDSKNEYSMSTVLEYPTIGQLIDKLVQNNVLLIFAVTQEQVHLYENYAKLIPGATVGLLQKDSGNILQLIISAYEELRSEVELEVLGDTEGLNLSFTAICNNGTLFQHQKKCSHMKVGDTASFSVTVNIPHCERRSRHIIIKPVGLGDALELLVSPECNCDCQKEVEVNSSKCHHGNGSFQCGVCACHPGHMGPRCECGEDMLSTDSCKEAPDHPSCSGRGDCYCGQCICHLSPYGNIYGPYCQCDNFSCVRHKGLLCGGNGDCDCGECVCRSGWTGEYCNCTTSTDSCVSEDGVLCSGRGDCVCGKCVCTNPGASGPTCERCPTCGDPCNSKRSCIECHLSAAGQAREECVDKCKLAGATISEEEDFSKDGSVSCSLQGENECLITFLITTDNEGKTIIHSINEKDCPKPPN

The assay concerns the target recombinant human integrin αvβ6 (Homo sapiens (Human), UniProt P06756+P18564). Put plainly: Solid phase integrin αvβ6 binding assay. The note with it: IC50 presented in four ranges; read-out: αvβ6 Inhibition IC50 (nM) - range. As to the method: (§1) Microplates were coated with recombinant human integrin αvβ6 (2 µg/mL) in PBS (100 µL/well 25° C., overnight). The coating solution was removed, washed with wash buffer (0.05% Tween 20; 0.5 mM MnCl2; in 1x TBS). The plate was blocked with 200 µL/well of Block Buffer (1% BSA; 5% sucrose; 0.5 mM MnCl2; in 1x TBS) at 37° C. for 2 h. Dilutions of testing compounds and recombinant TGFβ1 LAP (0.67 µg/mL) in binding buffer (0.05% BSA; 2.5% sucrose; 0.5 mM MnCl2; in 1x TBS) were added. The plate was incubated for 2 hours at 25° C., washed, and incubated for 1 hour with Biotin-Anti-hLAP. Bound antibody was detected by peroxidase-conjugated streptavidin. The IC50 values for testing compounds were calculated by a four-parameter logistic regression.
The compounds tested were compound samples prepared according to procedures described in the Synthetic Examples section, with the stereochemical purity as indicated in the Examples.
as §1, with “A third series of exemplary compounds was selected for testing in the solid phase integrin αvβ6 binding assay. The compounds tested were compound samples prepared according to procedures described in the Synthetic Examples section, with the stereochemical purity as indicated in the Examples. As in Example B1, microplates” for “Microplates”
As to `O=C(O)[C@H](CCN(CCCCc1ccc2c(n1)NCCC2)CCOc1cncc(F)c1)Nc1ncnc2ccccc12` [compound 58], the IC50 was less than 50 nM.

For `Cc1ccc(OCCN(CCCCc2ccc3c(n2)NCCC3)CC[C@H](Nc2ncnc3ccccc23)C(=O)O)cn1` [compound 59], the IC50 was less than 50 nM.

In the case of `O=C(O)[C@H](CCN(CCCCc1ccc2c(n1)NCCC2)CCOc1cncc(F)c1)Nc1ncnc2cccnc12` [compound 60], the IC50 was less than 50 nM.

Take `Cc1nc(N[C@@H](CCN(CCCCc2ccc3c(n2)NCCC3)CCOc2cncc(F)c2)C(=O)O)c2ccc(F)cc2n1` [compound 61]: the IC50 is less than 50 nM.

As for `CO[C@H](C)CN(CCCCc1ccc2c(n1)NCCC2)CCC(Nc1ncnc2ccccc12)C(=O)O` (stereo partly shown) [compound 62], the IC50 is less than 50 nM.

Regarding `CC(=O)NCCN(CCCCc1ccc2c(n1)NCCC2)CC[C@H](Nc1ncnc2ccccc12)C(=O)O` [compound 63], the IC50 was less than 50 nM.

In the case of `CN(C)C(=O)CN(CCCCc1ccc2c(n1)NCCC2)CC[C@H](Nc1ncnc2ccccc12)C(=O)O` [compound 64], the IC50 is less than 50 nM.

Consider `CO[C@H](C)CN(CCCCc1ccc2c(n1)NCCC2)CC[C@H](Nc1nc(C)nc2cc(F)ccc12)C(=O)O` [compound 65], for which the half-inhibitory concentration (IC50) was less than 50 nM.

`CO[C@H](C)CN(CCCCc1ccc2c(n1)NCCC2)CC[C@H](Nc1nc(C)nc2ccccc12)C(=O)O` [compound 66]: the concentration for half-maximal inhibition (IC50) was less than 50 nM.

`COCCN(CCCCc1ccc2c(n1)NCCC2)CC[C@H](Nc1nccnc1C#N)C(=O)O` [compound 67]: the IC50 was less than 50 nM.

As for `CO[C@H](C)CN(CCCCc1ccc2c(n1)NCCC2)CC[C@H](Nc1ncnc2[nH]ncc12)C(=O)O` [compound 71], the IC50 was less than 50 nM.

On to `CO[C@H](C)CN(CCCCc1ccc2c(n1)NCCC2)CC[C@H](Nc1ccnc(-c2ccccc2)n1)C(=O)O` [compound 73], for which the 50% inhibitory concentration (IC50) was less than 50 nM.

As to `CO[C@H](C)CN(CCCCc1ccc2c(n1)NCCC2)CC[C@H](Nc1ncnc2c1cnn2C)C(=O)O` [compound 74], the IC50 is less than 50 nM.

For `O=C(O)[C@H](CCN(CCO)CCCCc1ccc2c(n1)NCCC2)Nc1ncnc2ccccc12` [compound 75], the IC50 is less than 50 nM.

Regarding `CO[C@H](C)CN(CCCCc1ccc2c(n1)NCCC2)CC[C@H](Nc1nccnc1C#N)C(=O)O` [compound 76], the IC50 is less than 50 nM.

As to `CO[C@H](C)CN(CCCCc1ccc2c(n1)NCCC2)CC[C@H](Nc1cc(-n2cccn2)ncn1)C(=O)O` [compound 77], the IC50 was less than 50 nM.

Regarding `CO[C@H](C)CN(CCCCc1ccc2c(n1)NCCC2)CC[C@H](Nc1ncc(F)cn1)C(=O)O` [compound 78], the IC50 was less than 50 nM.

As for `CO[C@H](C)CN(CCCCc1ccc2c(n1)NCCC2)CC[C@H](Nc1ncnc2cn[nH]c12)C(=O)O` [compound 79], the IC50 was less than 50 nM.

As to `CO[C@H](C)CN(CCCCc1ccc2c(n1)NCCC2)CC[C@H](Nc1ncncc1-c1ccccc1)C(=O)O` [compound 81], the 50% inhibitory concentration (IC50) was less than 50 nM.

For `Cn1ncc2c(N[C@@H](CCN(CCCCc3ccc4c(n3)NCCC4)CCOc3ccccc3)C(=O)O)ncnc21` [compound 82], the IC50 was less than 50 nM.

Regarding `O=C(O)[C@H](CCN(CCCCc1ccc2c(n1)NCCC2)CCOc1ccccc1)Nc1ncc(Br)cn1` [compound 83], the half-inhibitory concentration (IC50) was less than 50 nM.

Turning to `CO[C@H](C)CN(CCCCc1ccc2c(n1)NCCC2)CC[C@H](Nc1ncc(C#N)cn1)C(=O)O` [compound 84], the half-maximal inhibitory concentration (IC50) fell in the range of 250 to 1000 nM.

For the compound `CO[C@H](C)CN(CCCCc1ccc2c(n1)NCCC2)CC[C@H](Nc1ncc(C(F)(F)F)cn1)C(=O)O` [compound 85], the IC50 lay in the range of 250 to 1000 nM.

Turning to `CO[C@H](C)CN(CCCCc1ccc2c(n1)NCCC2)CC[C@H](Nc1ncc(Br)cn1)C(=O)O` [compound 86], the IC50 was 50 to 250 nM.

As to `CO[C@H](C)CN(CCCCc1ccc2c(n1)NCCC2)CC[C@H](Nc1ccnc(C(F)(F)F)n1)C(=O)O` [compound 87], the half-inhibitory concentration (IC50) lay in the range of 250 to 1000 nM.

On to `Cn1ncc2c(N[C@@H](CCN(CCCCc3ccc4c(n3)NCCC4)CC(F)F)C(=O)O)ncnc21` [compound 88], for which the 50% inhibitory concentration (IC50) is more than 1000 nM.

Regarding `O=C(O)[C@H](CCN(CCCCc1ccc2c(n1)NCCC2)CCOc1ccccc1)Nc1ncc(C(F)(F)F)cn1` [compound 89], the IC50 is less than 50 nM.

For `O=C(O)[C@H](CCN(CCCCc1ccc2c(n1)NCCC2)CCOc1ccccc1)Nc1ncnc2[nH]ncc12` [compound 90], the IC50 was less than 50 nM.

For the compound `O=C(O)[C@H](CCN(CCCCc1ccc2c(n1)NCCC2)CCOc1ccccc1)Nc1cc(-n2cccn2)ncn1` [compound 91], the IC50 is less than 50 nM.

Consider `O=C(O)[C@H](CCN(CCCCc1ccc2c(n1)NCCC2)CCOc1ccccc1)Nc1ccnc(C(F)(F)F)n1` [compound 92], for which the IC50 was less than 50 nM.

For `O=C(O)[C@H](CCN(CCCCc1ccc2c(n1)NCCC2)CCOc1ccccc1)Nc1cc(-c2ccccc2)ncn1` [compound 93], the IC50 was less than 50 nM.

Take `O=C(O)[C@H](CCN(CCCCc1ccc2c(n1)NCCC2)CCOc1ccccc1)Nc1nc(-c2cccnc2)nc2ccccc12` [compound 94]: the IC50 is less than 50 nM.

As for `O=C(O)[C@H](CCN(CCCCc1ccc2c(n1)NCCC2)CC(F)F)Nc1ncc(C(F)(F)F)cn1` [compound 95], the IC50 was more than 1000 nM.

Take `O=C(O)[C@H](CCN(CCCCc1ccc2c(n1)NCCC2)CC(F)F)Nc1ncc(Br)cn1` [compound 96]: the IC50 was more than 1000 nM.

On to `O=C(O)[C@H](CCN(CCCCc1ccc2c(n1)NCCC2)CC(F)F)Nc1ccnc(C(F)(F)F)n1` [compound 97], for which the 50% inhibitory concentration (IC50) was more than 1000 nM.

For `O=C(O)[C@H](CCN(CCCCc1ccc2c(n1)NCCC2)CC(F)F)Nc1cc(-n2cccn2)ncn1` [compound 98], the half-maximal inhibitory concentration (IC50) is more than 1000 nM.

As to `O=C(O)[C@H](CCN(CCCCc1ccc2c(n1)NCCC2)CC(F)F)Nc1nc(-c2cccnc2)nc2ccccc12` [compound 99], the half-inhibitory concentration (IC50) was in the range of 250 to 1000 nM.

Consider `CO[C@H](C)CN(CCCCc1ccc2c(n1)NCCC2)CC[C@H](Nc1nc(-c2cccnc2)nc2ccccc12)C(=O)O` [compound 100], for which the half-maximal inhibitory concentration (IC50) was less than 50 nM.

As to `Cn1ncc2c(N[C@@H](CCN(CCCCc3ccc4c(n3)NCCC4)CCS(C)(=O)=O)C(=O)O)ncnc21` [compound 101], the IC50 is 50 to 250 nM.

Turning to `CS(=O)(=O)CCN(CCCCc1ccc2c(n1)NCCC2)CC[C@H](Nc1ncc(C(F)(F)F)cn1)C(=O)O` [compound 102], the IC50 was more than 1000 nM.

Turning to `CS(=O)(=O)CCN(CCCCc1ccc2c(n1)NCCC2)CC[C@H](Nc1ncc(Br)cn1)C(=O)O` [compound 103], the IC50 was more than 1000 nM.

`CS(=O)(=O)CCN(CCCCc1ccc2c(n1)NCCC2)CC[C@H](Nc1ccnc(C(F)(F)F)n1)C(=O)O` [compound 104]: the IC50 is more than 1000 nM.

With `COC[C@@H](F)CN(CCCCc1ccc2c(n1)NCCC2)CC[C@H](Nc1ncnc2c1cnn2C)C(=O)O` [compound 105], the IC50 is less than 50 nM.

Take `CS(=O)(=O)CCN(CCCCc1ccc2c(n1)NCCC2)CC[C@H](Nc1nc(-c2cccnc2)nc2ccccc12)C(=O)O` [compound 107]: the IC50 was in the range of 250 to 1000 nM.

For `COC[C@@H](F)CN(CCCCc1ccc2c(n1)NCCC2)CC[C@H](Nc1cc(-n2cccn2)ncn1)C(=O)O` [compound 108], the IC50 was more than 1000 nM.

Regarding `COC[C@@H](F)CN(CCCCc1ccc2c(n1)NCCC2)CC[C@H](Nc1nc(-c2cccnc2)nc2ccccc12)C(=O)O` [compound 109], the IC50 is less than 50 nM.

On to `COC[C@@H](F)CN(CCCCc1ccc2c(n1)NCCC2)CC[C@H](Nc1ncncc1-c1ccccc1)C(=O)O` [compound 110], for which the IC50 is less than 50 nM.

As for `N#Cc1cnc(N[C@@H](CCN(CCCCc2ccc3c(n2)NCCC3)CCOc2ccccc2)C(=O)O)nc1` [compound 111], the IC50 is less than 50 nM.

As to `O=C(O)[C@H](CCN(CCCCc1ccc2c(n1)NCCC2)CC(F)F)Nc1ncnc2[nH]ncc12` [compound 112], the IC50 lay within 250 to 1000 nM.

In the case of `O=C(O)[C@H](CCN(CCCCc1ccc2c(n1)NCCC2)C1CC1)Nc1ncc(C(F)(F)F)cn1` [compound 114], the IC50 is less than 50 nM.

For `O=C(O)[C@H](CCN(CCCCc1ccc2c(n1)NCCC2)C1CC1)Nc1ccnc(C(F)(F)F)n1` [compound 115], the IC50 lay in the range of 50 to 250 nM.

With `O=C(O)[C@H](CCN(CCCCc1ccc2c(n1)NCCC2)C1CC1)Nc1ncnc2[nH]ncc12` [compound 116], the concentration for half-maximal inhibition (IC50) is 50 to 250 nM.

Consider `O=C(O)[C@H](CCN(CCCCc1ccc2c(n1)NCCC2)CCOc1ccccc1)Nc1ncc(C2CC2)cn1` [compound 117], for which the half-inhibitory concentration (IC50) was less than 50 nM.

`N#Cc1cnc(N[C@@H](CCN(CCCCc2ccc3c(n2)NCCC3)CC(F)F)C(=O)O)nc1` [compound 118]: the concentration for half-maximal inhibition (IC50) was more than 1000 nM.

As for `O=C(O)[C@H](CCN(CCCCc1ccc2c(n1)NCCC2)CC(F)F)Nc1ncncc1-c1ccccc1` [compound 119], the 50% inhibitory concentration (IC50) was more than 1000 nM.
